# ChEMBL document CHEMBL1156772, “Synthesis, affinity profile and functional activity of potent chiral muscarinic antagonists with a pyrrolidinylfuran structure” (J Med Chem, 2010)
# What was measured:
# [1] = biological target: T1, Muscarinic receptor 2 (Cavia porcellus, UniProt Q8VH27); experiment: Antagonist activity at muscarinic M2 receptor in guinea pig left atrium assessed as effect on electrically-stimulated inotropic activity after 60 mins; format: functional, tissue-based, Cardiac atrium; conditions: read-out: pA2 (converted)
# T1 sequence (Q8VH27 whole entry): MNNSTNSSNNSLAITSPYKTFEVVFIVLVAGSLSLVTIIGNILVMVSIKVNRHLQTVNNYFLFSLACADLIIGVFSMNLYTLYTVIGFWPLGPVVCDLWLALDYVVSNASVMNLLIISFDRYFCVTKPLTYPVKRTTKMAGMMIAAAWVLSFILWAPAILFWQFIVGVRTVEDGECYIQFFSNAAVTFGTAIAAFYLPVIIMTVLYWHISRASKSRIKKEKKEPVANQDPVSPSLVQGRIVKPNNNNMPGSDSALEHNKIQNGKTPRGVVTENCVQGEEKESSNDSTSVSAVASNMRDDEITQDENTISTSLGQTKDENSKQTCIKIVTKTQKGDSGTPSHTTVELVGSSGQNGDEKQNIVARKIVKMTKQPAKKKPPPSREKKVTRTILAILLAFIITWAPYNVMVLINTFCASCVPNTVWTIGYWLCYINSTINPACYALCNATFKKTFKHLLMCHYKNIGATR
# [2] = biological target: T2, Muscarinic receptor 4 (Cavia porcellus, UniProt Q8VH25); experiment: Antagonist activity at muscarinic M4 receptor in guinea pig lung strips assessed as effect on isotonic contraction after 60 mins; format: functional; conditions: read-out: pA2 (converted)
# T2 sequence (Q8VH25 whole entry): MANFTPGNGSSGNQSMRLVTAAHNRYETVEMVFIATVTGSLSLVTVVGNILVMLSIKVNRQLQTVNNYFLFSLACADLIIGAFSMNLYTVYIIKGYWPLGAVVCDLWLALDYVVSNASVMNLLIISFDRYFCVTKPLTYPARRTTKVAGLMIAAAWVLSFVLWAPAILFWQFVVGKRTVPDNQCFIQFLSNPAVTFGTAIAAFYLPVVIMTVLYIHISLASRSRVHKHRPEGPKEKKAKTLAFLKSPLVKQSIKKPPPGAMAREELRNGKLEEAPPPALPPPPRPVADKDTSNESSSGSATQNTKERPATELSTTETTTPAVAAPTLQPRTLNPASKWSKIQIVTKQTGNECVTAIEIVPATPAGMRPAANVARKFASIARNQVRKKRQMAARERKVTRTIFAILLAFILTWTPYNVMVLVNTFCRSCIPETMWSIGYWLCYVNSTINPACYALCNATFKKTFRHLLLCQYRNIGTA
structure (smiles),measurement,setting,value
C[N+]1(C)[C@@H]2C[C@@H](OC(=O)[C@H](CO)c3ccccc3)C[C@H]1[C@@H]1O[C@@H]12 [METHSCOPOLAMINE],Kb,[1],0.468 nM
same,Kb,[2],6.46 nM
